Reference: publication PMC8760490, “Discovery of novel furanylbenzamide inhibitors that target oncogenic tyrosine phosphatase SHP2 in leukemia cells” (The Journal of Biological Chemistry, 2021)

Columns and labels:
Format in all cases: biochemical
[1] = molecular target: T1, SHP2 catalytic domain (SHP2cat; residues 248–527) (Homo sapiens, UniProt Q06124); experiment: DiFMUP fluorescence phosphatase inhibition assay, SHP2cat; conditions: DiFMUP at Km (20 μM), pH 6.0; read-out: SHP2cat; IC50
T1 construct: the SHP2 catalytic domain (SHP2cat; residues 248–527); made in house
T1 sequence (Q06124 248-527): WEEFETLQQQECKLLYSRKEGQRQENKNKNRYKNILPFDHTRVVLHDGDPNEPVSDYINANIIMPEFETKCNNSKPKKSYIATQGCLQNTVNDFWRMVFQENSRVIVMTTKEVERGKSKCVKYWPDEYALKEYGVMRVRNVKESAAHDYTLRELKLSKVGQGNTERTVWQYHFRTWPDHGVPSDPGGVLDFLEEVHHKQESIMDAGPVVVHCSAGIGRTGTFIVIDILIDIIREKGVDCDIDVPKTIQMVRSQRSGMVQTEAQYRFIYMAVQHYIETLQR
Excerpt: (§1) To test the synthesized compounds for their potential to inhibit SHP2 activity, a fluorescence intensity-based assay using 6,8-difluoro-4-methylumbelliferyl phosphate (DiFMUP) as the substrate was adapted for three recombinant SHP2 constructs: (1) the SHP2 catalytic domain (SHP2cat; residues 248–527), (2) the full-length SHP2-E76K oncogenic mutant, and (3) the full-length SHP2 WT (SHP2-WT). The recombinant SHP2 proteins were expressed and purified as described previously ([36]). A dually phosphorylated peptide derived from the insulin receptor substrate 1 (IRS-1) served as a surrogate binding protein and was used to activate SHP2-WT ([30], [36]). […] Michaelis–Menten experiments to determine the DiFMUP Michaelis–Menten constant (Km) for each SHP2 construct were performed as described previously ([36]) and yielded the following values: SHP2-WT, Km = 60 μM; SHP2-E76K, Km = 20 μM; and SHP2cat, Km = 20 μM. Relative maximum rates (Vmax) of the DiFMUP reactions expressed as relative fluorescence units per minute (RFU/min) were as follows: SHP2-WT, Vmax = 871 RFU/min; SHP2-E76K, Vmax = 2730 RFU/min; and SHP2cat, Vmax = 2912 RFU/min. IC50 values for each compound were determined from initial rates in 10-point dose–response assays using DiFMUP at a concentration corresponding to its Km value for the respective SHP2 construct. […] Replacements for the benzothiophenone were explored using analog #10.
(§2) Recombinant human full-length SHP2 (1–594) WT and E76K mutants, as well as the SHP2cat (248–527), were expressed and purified as described before ([36], [41]). Recombinant human PTP1B (1–300) and the codon-optimized STEP (280–566) catalytic domains were cloned into PET-15b and expressed as N-His-tagged fusion proteins. For expression, transformed BL21(DE3) cells were grown and induced similar as described for SHP2. Collected cells were resuspended in lysis buffer (25 mM Tris, pH 7.5, 300 mM NaCl, 50 mM imidazole, and 10% glycerol) with 100 mg/l RNaseA and were lysed with two passages using a microfluidizer. The lysate was clarified by centrifugation at 15,000g for 50 min and applied to nickel–nitrilotriacetic acid resin. The column resin was washed, and the PTP1B or STEP protein was eluted in lysis buffer at 300 mM imidazole. The PTP1B or STEP protein was further purified by S75 size-exclusion chromatography in 50 mM Tris, pH 7.5, 50 mM NaCl. The eluted peak fractions were supplemented with tris(2-carboxyethyl)phosphine to 10 mM, concentrated by ultrafiltration, and stored at −80 °C. The purified yield of PTP1B was 33 mg/l cell culture; the yield of STEP was 16 mg/l cell culture.
(§3) SHP2 inhibitors were tested at RT in a 384-well plate format standard phosphatase fluorescence intensity assay using DiFMUP (Invitrogen/Thermo Fisher Scientific) as a substrate and a total reaction volume of 25 μl. SHP2 inhibitors or vehicle (DMSO) were spotted in triplicate into a black Greiner FLUOTRAC 200 384-well microplate (catalog no.: 781076; Greiner) for a 10-point dose–response assay using an Echo 555 Liquid Handler (Labcyte, Inc). PTP working solutions were prepared at a 0.625 nM concentration (for a final concentration of 0.5 nM) in buffer containing 50 mM Bis–Tris, pH 6.0, 50 mM NaCl, 5 mM DTT, and 0.01% Tween-20. Prior to the assay, a dually phosphorylated IRS-1 peptide (625 nM [500 nM final] ([30])) was added to full-length WT SHP2 working solutions and incubated for 20 min. DiFMUP working solutions at 5× final concentration were prepared in 50 mM Bis–Tris, pH 6.0, 50 mM NaCl, and 0.01% Tween-20. About 20 μl of PTP working solution was dispensed into the microplate and incubated with inhibitor for 20 min at RT. […] The reaction was initiated by addition of 5 μl DiFMUP working solutions. Fluorescence intensity was measured in kinetic mode (every minute for 7 or 10 min) using a Tecan Spark Multimode Microplate Reader (Tecan) with an excitation wavelength of 360 nm and an emission wavelength of 460 nm. […]

[2] = molecular target: T2, full-length SHP2-E76K oncogenic mutant (Homo sapiens, UniProt Q06124, E76K); experiment: DiFMUP fluorescence phosphatase inhibition assay, SHP2-E76K; conditions: for IC50: DiFMUP at Km (20 μM), 10-point dose–response, pH 6.0
T2 construct: Recombinant human full-length SHP2 (1–594) WT and E76K mutants; made in house
T2 sequence (Q06124 1-593 E76K): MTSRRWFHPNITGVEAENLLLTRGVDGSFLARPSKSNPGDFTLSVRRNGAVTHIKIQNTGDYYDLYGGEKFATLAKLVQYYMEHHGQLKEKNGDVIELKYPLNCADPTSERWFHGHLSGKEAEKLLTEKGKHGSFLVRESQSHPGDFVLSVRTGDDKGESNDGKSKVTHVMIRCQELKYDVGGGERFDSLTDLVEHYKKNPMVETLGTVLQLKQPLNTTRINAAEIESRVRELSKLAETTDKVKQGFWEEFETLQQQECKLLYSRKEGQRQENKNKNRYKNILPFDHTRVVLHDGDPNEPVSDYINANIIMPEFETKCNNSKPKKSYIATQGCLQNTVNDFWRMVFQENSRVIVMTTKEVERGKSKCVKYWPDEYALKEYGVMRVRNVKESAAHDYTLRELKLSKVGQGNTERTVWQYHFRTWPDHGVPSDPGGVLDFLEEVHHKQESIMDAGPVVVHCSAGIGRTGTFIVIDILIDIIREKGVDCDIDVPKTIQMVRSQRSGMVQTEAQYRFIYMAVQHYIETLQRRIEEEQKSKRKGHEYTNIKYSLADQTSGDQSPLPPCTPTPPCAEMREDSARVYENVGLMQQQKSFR
Excerpt: as §1, §2, §3

[3] = molecular target: T3, full-length SHP2 WT (SHP2-WT) (Homo sapiens, UniProt Q06124); experiment: DiFMUP fluorescence phosphatase inhibition assay, SHP2-WT activated with IRS-1 peptide; conditions: DiFMUP at Km (60 μM), pH 6.0
T3 construct: Recombinant human full-length SHP2 (1–594) WT and E76K mutants; made in house
Excerpt: as §1, §2, §3

O=C(O)c1cc(-c2ccc(/C=C3\Oc4ccccc4C3=O)o2)ccc1O [SBI-0165, (Z)-2-Hydroxy-5-(5-((3-oxobenzofuran-2(3H)-ylidene)methyl)furan-2-yl)benzoic acid]
IC50 [1]: 2.4 µM
IC50 [2]: 7.2 µM
IC50 [3]: 13 µM

CC(C)NC(=O)c1cc(-c2ccc(/C=C3\Sc4ccccc4C3=O)o2)ccc1O [SBI-0287, (Z)-2-Hydroxy-N-isopropyl-5-(5-((3-oxobenzo[b]thiophen-2(3H)-ylidene)methyl)furan-2-yl)benzamide]
IC50 [2]: 20 µM
IC50 [3]: 53 µM

O=C(NCCO)c1cc(-c2ccc(/C=C3\Sc4ccccc4C3=O)o2)ccc1O [SBI-1457, (Z)-2-Hydroxy-N-(2-hydroxyethyl)-5-(5-((3-oxobenzo[b]thiophen-2(3H)-ylidene)methyl)furan-2-yl)benzamide]
IC50 [2]: > 100 µM
IC50 [3]: > 100 µM

O=C1/C(=C/c2ccc(-c3ccc(O)c(C(=O)N4CCNCC4)c3)o2)Sc2ccccc21 [SBI-2124, (Z)-2-((5-(4-Hydroxy-3-(piperazine-1-carbonyl)phenyl)furan-2-yl)methylene)benzo[b]thiophen-3(2H)-one]
IC50 [2]: 91 µM
IC50 [3]: > 100 µM

CN1CCN(C(=O)c2cc(-c3ccc(/C=C4\Sc5ccccc5C4=O)o3)ccc2O)CC1 [SBI-2125, (Z)-2-((5-(4-Hydroxy-3-(4-methylpiperazine-1-carbonyl)phenyl)furan-2-yl)methylene)benzo[b]thiophen-3(2H)-one]
IC50 [2]: > 100 µM
IC50 [3]: > 100 µM

Nc1cccc(NC(=O)c2cc(-c3ccc(/C=C4\Sc5ccccc5C4=O)o3)ccc2O)c1 [SBI-2126, (Z)-N-(3-Aminophenyl)-2-hydroxy-5-(5-((3-oxobenzo[b]thiophen-2(3H)-ylidene)methyl)furan-2-yl)benzamide]
IC50 [1]: 5 µM
IC50 [2]: 7.2 µM
IC50 [3]: 18 µM

O=C(NNc1ccccc1)c1cc(-c2ccc(/C=C3\Sc4ccccc4C3=O)o2)ccc1O [SBI-2128, (Z)-2-Hydroxy-5-(5-((3-oxobenzo[b]thiophen-2(3H)-ylidene)methyl)furan-2-yl)-N′-phenylbenzohydrazide]
IC50 [1]: 3.1 µM
IC50 [2]: 11 µM
IC50 [3]: 14 µM

O=C(NCc1ccccc1)c1cccc(-c2ccc(/C=C3\Sc4ccccc4C3=O)o2)c1 [SBI-2129, (Z)-N-benzyl-3-(5-((3-oxobenzo[b]thiophen-2(3H)-ylidene)methyl)furan-2-yl)benzamide]
IC50 [2]: 65 µM
IC50 [3]: > 100 µM

O=C1/C(=C/c2ccc(-c3ccc(O)c(C(=O)N4CCCCC4)c3)o2)Sc2ccccc21 [SBI-2131, (Z)-2-((5-(4-Hydroxy-3-(piperidine-1-carbonyl)phenyl)furan-2-yl)methylene)benzo[b]thiophen-3(2H)-one]
IC50 [1]: 4.3 µM
IC50 [2]: 15 µM
IC50 [3]: 52 µM

O=C(Nc1ccccc1)c1cc(-c2ccc(/C=C3\Sc4ccccc4C3=O)o2)ccc1F [SBI-2348, (Z)-2-Fluoro-5-(5-((3-oxobenzo[b]thiophen-2(3H)-ylidene)methyl)furan-2-yl)-N-phenylbenzamide]
IC50 [2]: > 100 µM
IC50 [3]: > 100 µM

COc1ccc(-c2ccc(/C=C3\Sc4ccccc4C3=O)o2)cc1C(=O)Nc1ccccc1 [SBI-2349, (Z)-2-Methoxy-5-(5-((3-oxobenzo[b]thiophen-2(3H)-ylidene)methyl)furan-2-yl)-N-phenylbenzamide]
IC50 [2]: 84 µM
IC50 [3]: 87 µM

O=C1CCCC1=Cc1ccc(-c2ccc(O)c(C(=O)O)c2)o1 [SBI-3191, 2-Hydroxy-5-(5-((2-oxocyclopentylidene)methyl)furan-2-yl)benzoic acid]
IC50 [1]: 7.4 µM
IC50 [2]: 6 µM
IC50 [3]: 24 µM

O=C1CCCCC1=Cc1ccc(-c2ccc(O)c(C(=O)O)c2)o1 [SBI-3194, 2-Hydroxy-5-(5-((2-oxocyclohexylidene)methyl)furan-2-yl)benzoic acid]
IC50 [2]: 39 µM
IC50 [3]: 56 µM

O=C(O)c1cc(-c2ccc(C=C3Cc4ccccc4C3=O)o2)ccc1O [SBI-3204, 2-Hydroxy-5-(5-((1-oxo-1,3-dihydro-2H-inden-2-ylidene)methyl)furan-2-yl)benzoic acid]
IC50 [1]: 4.5 µM
IC50 [2]: 10 µM
IC50 [3]: 15 µM

O=C1/C(=C/c2ccc(-c3ccccc3)o2)Sc2ccccc21 [SBI-3570, (Z)-2-((5-phenylfuran-2-yl)methylene)benzo[b]thiophen-3(2H)-one]
IC50 [2]: > 100 µM
IC50 [3]: > 100 µM

O=C1/C(=C/c2ccc(-c3ccc(O)cc3)o2)Sc2ccccc21 [SBI-4167, (Z)-2-((5-(4-Hydroxyphenyl)furan-2-yl)methylene)benzo[b]thiophen-3(2H)-one]
IC50 [2]: 79 µM
loss in potency compared with #01 ([2]; E76K IC50): ~165 fold
IC50 [3]: > 100 µM

O=C(Nc1ccccc1)c1cc(-c2ccco2)ccc1O [SBI-4232, 5-(Furan-2-yl)-2-hydroxy-N-phenylbenzamide]
IC50 [2]: > 100 µM
IC50 [3]: > 100 µM

O=C(Nc1ccccc1)c1cccc(-c2ccc(/C=C3\Sc4ccccc4C3=O)o2)c1 [SBI-5923, (Z)-3-(5-((3-Oxobenzo[b]thiophen-2(3H)-ylidene)methyl)furan-2-yl)-N-phenylbenzamide]
IC50 [2]: 52 µM
IC50 [3]: 62 µM
